{"source": "patent US10221169B2", "about": "“Substituted aminothiazoles for the treatment of tuberculosis” (THE BROAD INSTITUTE, INC., priority 2013, dated 2019)", "key": {"Replicating Mtb": {"tested_on": "Replicating Mtb", "assay": "microbe, parasite or virus in culture", "assay_type": "cell-based, M. tuberculosis H37Rv", "conditions": "log-phase Mtb; for IC90: Mycobacterium tuberculosis, 72 h, read-out: Replicating Mtb Log MIC IC90 (uM, GFP) (converted)"}, "[1]": {"tested_on": "Non-replicating Mtb Carbon-starved", "assay": "Non-replicating carbon-starved Mtb IC99 by luciferase", "assay_type": "cell-based, M. tuberculosis H37Rv", "conditions": "Mycobacterium tuberculosis, luciferase readout, 99% killing"}, "M. tuberculosis": {"tested_on": "M. tuberculosis", "assay": "MIC of control anti-tuberculosis antibiotics", "assay_type": "cell-based", "conditions": "Mycobacterium tuberculosis, MIC used as reference for 10× MIC"}}}
{"smiles": "Cc1cccnc1Nc1nc(-c2ccccn2)c(Br)s1", "note": "[Compound 17, 5-bromo-N-(3-methylpyridin-2-yl)-4-(pyridin-2-yl)thiazol-2-amine]", "values": [{"measurement": "IC90", "setting": "Replicating Mtb", "value": "< 1", "unit": "µM"}, {"measurement": "MIC", "setting": "[1]", "value": "< 16", "unit": "µM"}]}
{"smiles": "Cc1ccccc1Nc1nc(-c2ccccn2)cs1", "note": "[Compound 9]", "values": [{"measurement": "IC90", "setting": "Replicating Mtb", "value": 62, "unit": "µM"}, {"measurement": "MIC", "setting": "[1]", "value": 8, "unit": "µM"}]}
{"smiles": "c1ccc(Nc2nc(-c3ccccn3)cs2)nc1", "note": "[Compound 13]", "values": [{"measurement": "IC90", "setting": "Replicating Mtb", "value": 8, "unit": "µM"}]}
{"smiles": "Cc1ccc(-c2csc(Nc3ncccc3C)n2)cc1", "note": "[Compound 12]", "values": [{"measurement": "IC90", "setting": "Replicating Mtb", "value": 125, "unit": "µM"}]}
{"smiles": "CO[C@H]1/C=C/O[C@@]2(C)Oc3c(C)c(O)c4c(O)c(c(/C=N/N5CCN(C)CC5)c(O)c4c3C2=O)NC(=O)/C(C)=C\\C=C\\[C@H](C)[C@H](O)[C@@H](C)[C@@H](O)[C@@H](C)[C@H](OC(C)=O)[C@@H]1C", "note": "[rifampin]", "values": [{"measurement": "MIC", "setting": "M. tuberculosis", "value": 0.01, "unit": "µg/mL"}]}
{"smiles": "Cc1cccnc1Nc1nc(-c2cccnc2)cs1", "note": "[Compound 10]", "values": [{"measurement": "IC90", "setting": "Replicating Mtb", "value": 125, "unit": "µM"}]}
{"smiles": "COc1ccc(Nc2nc(-c3ccccn3)cs2)c(OC)c1", "note": "[Compound 3]", "values": [{"measurement": "IC90", "setting": "Replicating Mtb", "value": 8, "unit": "µM"}]}
{"smiles": "Clc1ccc(Nc2nc(-c3ccccn3)cs2)nc1", "note": "[Compound 2]", "values": [{"measurement": "IC90", "setting": "Replicating Mtb", "value": 2, "unit": "µM"}, {"measurement": "MIC", "setting": "[1]", "value": 2, "unit": "µM"}]}
{"smiles": "COc1ccc(CCNc2nc(-c3ccccn3)cs2)cc1OC", "note": "[Compound 5]", "values": [{"measurement": "IC90", "setting": "Replicating Mtb", "value": 62, "unit": "µM"}, {"measurement": "MIC", "setting": "[1]", "value": 8, "unit": "µM"}]}
{"smiles": "CCOC(=O)c1sc(Nc2ncccc2C)nc1-c1ccccn1", "note": "[Compound 18, ethyl 2-((3-methylpyridin-2-yl)amino)-4-(pyridin-2-yl)thiazole-5-carboxylate]", "values": [{"measurement": "IC90", "setting": "Replicating Mtb", "value": 4, "unit": "µM"}, {"measurement": "MIC", "setting": "[1]", "value": 8, "unit": "µM"}]}
{"smiles": "Cc1cccnc1Nc1nc(-c2ccncc2)cs1", "note": "[Compound 11]", "values": [{"measurement": "Replicating Mtb Log MIC IC90 (uM, GFP)", "setting": "Replicating Mtb", "value": "None detected"}]}
{"smiles": "O=C(O)COc1cccnc1Nc1nc(-c2ccccn2)cs1", "note": "[Compound 21, 2-((2-((4-(pyridin-2-yl)thiazol-2-yl)amtno)pyridin-3-yl)oxy)acetic acid]", "values": [{"measurement": "IC90", "setting": "Replicating Mtb", "value": 125, "unit": "µM"}, {"measurement": "MIC", "setting": "[1]", "value": "> 125", "unit": "µM"}]}
{"smiles": "Cc1cccnc1Nc1nc(-c2ccccn2)cs1", "note": "[Compound 1, N-(3-methylpyridin-2-yl)-4-(pyridin-2-yl)thiazol-2-amine]", "values": [{"measurement": "IC90", "setting": "Replicating Mtb", "value": 0.5, "unit": "µM"}, {"measurement": "MIC", "setting": "[1]", "value": 1, "unit": "µM"}]}
{"smiles": "Cc1ccnc(Nc2nc(-c3ccccn3)cs2)c1", "note": "[Compound 14]", "values": [{"measurement": "IC90", "setting": "Replicating Mtb", "value": 16, "unit": "µM"}]}
{"smiles": "Cc1cccnc1Nc1nc(-c2ccccn2)c(CN2CCOCC2)s1", "note": "[Compound 19, N-(3-methylpyridin-2-yl)-5-(morpholinomethyl)-4-(pyridin-2-yl)thiazol-2-amine]", "values": [{"measurement": "IC90", "setting": "Replicating Mtb", "value": 16, "unit": "µM"}, {"measurement": "MIC", "setting": "[1]", "value": 32, "unit": "µM"}]}
{"smiles": "C/C(=N\\Nc1nc(C)c(C)s1)c1ccc(Br)cc1", "note": "[Compound 15]", "values": [{"measurement": "IC90", "setting": "Replicating Mtb", "value": 62, "unit": "µM"}, {"measurement": "MIC", "setting": "[1]", "value": 16, "unit": "µM"}]}
{"smiles": "CC(C)(C)OC(=O)COc1cccnc1Nc1nc(-c2ccccn2)cs1", "note": "[Compound 20, tert-butyl 2-((2-((4-(pyridin-2-yl)thiazol-2-yl)amino)pyridin-3-yl)oxy)acetate]", "values": [{"measurement": "MIC", "setting": "[1]", "value": 4, "unit": "µM"}]}
{"smiles": "CN(C)c1ccc(Nc2nc(-c3ccccn3)cs2)nc1", "note": "[Compound 6]", "values": [{"measurement": "IC90", "setting": "Replicating Mtb", "value": 125, "unit": "µM"}, {"measurement": "MIC", "setting": "[1]", "value": 8, "unit": "µM"}]}
{"smiles": "FC(F)(F)c1ccccc1Nc1nc(-c2ccccn2)cs1", "note": "[Compound 4]", "values": [{"measurement": "IC90", "setting": "Replicating Mtb", "value": 62, "unit": "µM"}]}
